Test results published in the NIST ThermoML archive (doi:10.1016/j.jct.2011.08.019).
Where “and” joins values, the source holds several entries; their conditions need not be identical. Identical values can stand only once. Numbers after ± are expanded uncertainties.

Test: molar heat capacity at constant pressure
Settings: 101.33 kPa, Liquid, Small sample (50 mg) DSC

Structure (SMILES)	molar heat capacity at constant pressure (328.15 K)	molar heat capacity at constant pressure (333.15 K)	molar heat capacity at constant pressure (338.15 K)	molar heat capacity at constant pressure (343.15 K)	molar heat capacity at constant pressure (348.15 K)	molar heat capacity at constant pressure (353.15 K)	molar heat capacity at constant pressure (358.15 K)	molar heat capacity at constant pressure (363.15 K)	molar heat capacity at constant pressure (368.15 K)	molar heat capacity at constant pressure (373.15 K)	molar heat capacity at constant pressure (378.15 K)	molar heat capacity at constant pressure (383.15 K)	molar heat capacity at constant pressure (388.15 K)	molar heat capacity at constant pressure (393.15 K)	molar heat capacity at constant pressure (398.15 K)	molar heat capacity at constant pressure (403.15 K)	molar heat capacity at constant pressure (408.15 K)	molar heat capacity at constant pressure (413.15 K)	molar heat capacity at constant pressure (418.15 K)	molar heat capacity at constant pressure (423.15 K)	other results
CCCCCCCCCCCCCC[P+](CCCCCC)(CCCCCC)CCCCCC.N#C[N-]C#N [tetradecyl(trihexyl)phosphonium dicyanamide]	1089.3 ± 110 J/K/mol and 1086 ± 110 J/K/mol and 1084.4 ± 110 J/K/mol	1094.3 ± 110 J/K/mol and 1099.2 ± 110 J/K/mol and 1095.4 ± 110 J/K/mol	1105.3 ± 110 J/K/mol and 1109.1 ± 110 J/K/mol and 1106.9 ± 110 J/K/mol	1114.6 ± 110 J/K/mol and 1119.6 ± 110 J/K/mol and 1116.8 ± 110 J/K/mol	1124.5 ± 110 J/K/mol and 1129.5 ± 110 J/K/mol and 1127.3 ± 110 J/K/mol	1135 ± 110 J/K/mol and 1140.5 ± 120 J/K/mol and 1137.2 ± 110 J/K/mol	1145.4 ± 120 J/K/mol and 1150.4 ± 120 J/K/mol and 1147.6 ± 120 J/K/mol	1155.3 ± 120 J/K/mol and 1160.3 ± 120 J/K/mol	1164.1 ± 120 J/K/mol and 1169.1 ± 120 J/K/mol and 1165.2 ± 120 J/K/mol	1172.9 ± 120 J/K/mol and 1177.9 ± 120 J/K/mol and 1173.5 ± 120 J/K/mol	1180.6 ± 120 J/K/mol and 1186.1 ± 120 J/K/mol and 1190.5 ± 120 J/K/mol	1188.9 ± 120 J/K/mol and 1194.4 ± 120 J/K/mol and 1194.9 ± 120 J/K/mol	1197.7 ± 120 J/K/mol and 1203.2 ± 120 J/K/mol and 1204.8 ± 120 J/K/mol	1205.9 ± 120 J/K/mol and 1212 ± 120 J/K/mol and 1214.2 ± 120 J/K/mol	1213.6 ± 120 J/K/mol and 1219.7 ± 120 J/K/mol and 1220.2 ± 120 J/K/mol	1221.3 ± 120 J/K/mol and 1226.8 ± 120 J/K/mol and 1227.9 ± 120 J/K/mol	1227.4 ± 120 J/K/mol and 1233.4 ± 120 J/K/mol and 1234 ± 120 J/K/mol	1234.5 ± 120 J/K/mol and 1241.1 ± 130 J/K/mol and 1244.4 ± 130 J/K/mol	–	–	molar heat capacity at constant pressure (313.15 K): 1060.2 ± 110 J/K/mol and 1065.1 ± 110 J/K/mol and 1061.3 ± 110 J/K/mol; molar heat capacity at constant pressure (318.15 K): 1065.7 ± 110 J/K/mol and 1070.6 ± 110 J/K/mol and 1067.3 ± 110 J/K/mol; molar heat capacity at constant pressure (323.15 K): 1075.6 ± 110 J/K/mol and 1080 ± 110 J/K/mol and 1076.1 ± 110 J/K/mol
CCn1cc[n+](C)c1.O=S(=O)([N-]S(=O)(=O)C(F)(F)F)C(F)(F)F	–	–	–	531 ± 54 J/K/mol and 533.4 ± 54 J/K/mol and 533.7 ± 54 J/K/mol	531.8 ± 54 J/K/mol and 534.1 ± 54 J/K/mol and 534.9 ± 54 J/K/mol	533 ± 54 J/K/mol and 536.1 ± 54 J/K/mol	537.3 ± 54 J/K/mol and 537.7 ± 54 J/K/mol and 534.9 ± 54 J/K/mol	536.1 ± 54 J/K/mol and 538.4 ± 54 J/K/mol and 539.2 ± 54 J/K/mol	537.7 ± 54 J/K/mol and 539.6 ± 54 J/K/mol and 540.4 ± 55 J/K/mol	538.8 ± 54 J/K/mol and 541.6 ± 55 J/K/mol and 542.4 ± 55 J/K/mol	540.8 ± 55 J/K/mol and 542.7 ± 55 J/K/mol and 543.5 ± 55 J/K/mol	541.6 ± 55 J/K/mol and 543.9 ± 55 J/K/mol	542.7 ± 55 J/K/mol and 545.1 ± 55 J/K/mol and 545.5 ± 55 J/K/mol	544.7 ± 55 J/K/mol and 546.7 ± 55 J/K/mol	545.5 ± 55 J/K/mol and 547.4 ± 55 J/K/mol and 548.2 ± 55 J/K/mol	547.4 ± 55 J/K/mol and 549.4 ± 56 J/K/mol	548.6 ± 55 J/K/mol and 550.2 ± 56 J/K/mol and 549.8 ± 56 J/K/mol	549.4 ± 56 J/K/mol and 552.1 ± 56 J/K/mol and 550.2 ± 56 J/K/mol	550.6 ± 56 J/K/mol and 552.5 ± 56 J/K/mol and 551.7 ± 56 J/K/mol	551.4 ± 56 J/K/mol and 552.9 ± 56 J/K/mol and 552.5 ± 56 J/K/mol	molar heat capacity at constant pressure (428.15 K): 552.1 ± 56 J/K/mol and 553.7 ± 56 J/K/mol and 552.9 ± 56 J/K/mol; molar heat capacity at constant pressure (433.15 K): 552.5 ± 56 J/K/mol and 554.9 ± 56 J/K/mol and 555.3 ± 56 J/K/mol; molar heat capacity at constant pressure (438.15 K): 554.1 ± 56 J/K/mol and 556.1 ± 56 J/K/mol and 555.7 ± 56 J/K/mol; molar heat capacity at constant pressure (443.15 K): 554.9 ± 56 J/K/mol and 556.4 ± 56 J/K/mol and 556.1 ± 56 J/K/mol; molar heat capacity at constant pressure (448.15 K): 555.7 ± 56 J/K/mol and 557.2 ± 56 J/K/mol; molar heat capacity at constant pressure (453.15 K): 556.4 ± 56 J/K/mol and 558.4 ± 56 J/K/mol and 556.8 ± 56 J/K/mol; molar heat capacity at constant pressure (458.15 K): 557.6 ± 56 J/K/mol and 558.4 ± 56 J/K/mol and 558 ± 56 J/K/mol; molar heat capacity at constant pressure (463.15 K): 557.6 ± 56 J/K/mol and 558.8 ± 56 J/K/mol
CCCCCCCCCCCCCC[P+](CCCCCC)(CCCCCC)CCCCCC.O=S(=O)([N-]S(=O)(=O)C(F)(F)F)C(F)(F)F	1373.7 ± 140 J/K/mol and 1363 ± 140 J/K/mol and 1359.9 ± 140 J/K/mol	1370.6 ± 140 J/K/mol [middle of 4 runs]	1375.2 ± 140 J/K/mol [middle of 4 runs]	1381.3 ± 140 J/K/mol [middle of 4 runs]	1390.5 ± 140 J/K/mol [middle of 4 runs]	1400.4 ± 140 J/K/mol [middle of 4 runs]	1410.4 ± 140 J/K/mol and 1399.7 ± 140 J/K/mol and 1395.1 ± 140 J/K/mol	1419.5 ± 140 J/K/mol [middle of 4 runs]	1428.7 ± 140 J/K/mol and 1420.3 ± 140 J/K/mol and 1426.4 ± 140 J/K/mol	1439.4 ± 150 J/K/mol [middle of 4 runs]	1445.5 ± 150 J/K/mol [middle of 4 runs]	1454.7 ± 150 J/K/mol [middle of 4 runs]	1462.3 ± 150 J/K/mol [middle of 4 runs]	1470 ± 150 J/K/mol [middle of 4 runs]	1479.9 ± 150 J/K/mol [middle of 4 runs]	1487.5 ± 150 J/K/mol and 1478.4 ± 150 J/K/mol and 1469.2 ± 150 J/K/mol	1494.4 ± 150 J/K/mol [middle of 4 runs]	1501.3 ± 150 J/K/mol [middle of 4 runs]	1508.9 ± 150 J/K/mol [middle of 4 runs]	1516.6 ± 150 J/K/mol [middle of 4 runs]	molar heat capacity at constant pressure (428.15 K): 1521.9 ± 150 J/K/mol [middle of 4 runs]; molar heat capacity at constant pressure (433.15 K): 1533.4 ± 150 J/K/mol and 1519.6 ± 150 J/K/mol and 1509.7 ± 150 J/K/mol; molar heat capacity at constant pressure (438.15 K): 1541 ± 160 J/K/mol [middle of 4 runs]; molar heat capacity at constant pressure (443.15 K): 1544.8 ± 160 J/K/mol [middle of 4 runs]; molar heat capacity at constant pressure (448.15 K): 1548.6 ± 160 J/K/mol [middle of 4 runs]; molar heat capacity at constant pressure (453.15 K): 1557.8 ± 160 J/K/mol [middle of 4 runs]; molar heat capacity at constant pressure (458.15 K): 1561.6 ± 160 J/K/mol [middle of 4 runs]; molar heat capacity at constant pressure (463.15 K): 1567.7 ± 160 J/K/mol [middle of 4 runs]
